This note sets out measurements from patent US7338958B2, “Sulfoximine-substituted pyrimidines as CDK-and/or VEGF inhibitors, their production and use as pharmaceutical agents” (Schering AG, priority 2003, dated 2008).

Experiment [1] deals with DU 145, hormone-independent human prostate cancer cells. Description: Proliferation assay, DU145. In kind it is cell-based. As to conditions: DU-145, 96 h, 4 days incubation, crystal violet. The source says: (§1) Cultivated human tumor cells (MCF7, hormone-independent human breast cancer cells, related to ATCC HTB22; NCI-H460, human non-small-cell lung cancer cells, ATCC HTB-177, HCT 116, human colon cancer cells, ATCC CCL-247; DU 145, hormone-independent human prostate cancer cells, ATCC HTB-81; MaTu-MDR, hormone-independent, multiple pharmaceutical agent-resistant human breast cancer cells, EPO-GmbH, Berlin) were flattened out at a density of about 5000 cells/measuring point, depending on the growth rate of the respective cells, in a 96-well multititer plate in 200 μl of the corresponding growth medium. After 24 hours, the cells of one plate (zero-point plate) were colored with crystal violet (see below), while the medium of the other plates was replaced by fresh culture medium (200 μl), to which the test substances were added in various concentrations (0 μm, as well as in the range of 0.01-30 μm; the final concentration of the solvent dimethyl sulfoxide was 0.5%). The cells were incubated for 4 days in the presence of test substances. The cell proliferation was determined by coloring the cells with crystal violet: the cells were fixed by adding 20 μl/measuring point of an 11% glutaric aldehyde solution for 15 minutes at room temperature. After three washing cycles of the fixed cells with water, the plates were dried at room temperature. The cells were colored by adding 100 μl/measuring point of a 0.1% crystal violet solution (the pH was set at 3 by adding acetic acid). After three washing cycles of the colored cells with water, the plates were dried at room temperature. The dye was dissolved by adding 100 μl/measuring point of a 10% acetic acid solution. The extinction was determined by photometry at a wavelength of 595 nm. The change of cell growth, in percent, was calculated by normalization of the measured values to the extinction values of the zero-point plate (=0%) and the extinction of the untreated (0 μm) cells (=100%).

The test system of experiment [2] is MaTu-ADR. In words: Proliferation assay, MaTu-ADR. In kind it is cell-based. The note with it: Homo sapiens, 96 h, MaTu-ADR cells, 4 days incubation, crystal violet.
Description: as §1

In experiment [3] the target is T1, CDK2/CycE (Homo sapiens, UniProt P24941).
T1 construct: GST; purchased ProQinase GmbH, Freiburg; host or cells: baculovirus-infected insect cells (Sf9)
In words: CDK2/CycE Kinase Assay. In kind it is biochemical. As to conditions: histone IIIS substrate, 33P-ATP, 15 minutes at 22° C. Here is the method:
Recombinant CDK2- and CycE-GST-fusion proteins, purified from baculovirus-infected insect cells (Sf9), were purchased by ProQinase GmbH, Freiburg. Histone IIIs, which was used as a kinase substrate, was purchased by the Sigma Company.
CDK2/CycE (50 ng/measuring point) was incubated for 15 minutes at 22° C. in the presence of various concentrations of test substances (0 μm, as well as within the range of 0.01-100 μm) in assay buffer [50 mmol of tris/HCl, pH 8.0, 10 mmol of MgCl2, 0.1 mmol of Na ortho-vanadate, 1.0 mmol of dithiothreitol, 0.5 μm of adenosine triphosphate (ATP), 10 μg/measuring point of histone IIIS, 0.2 μCi/measuring point of ^33P-gamma ATP, 0.05% NP40, 12.5% dimethyl sulfoxide]. The reaction was stopped by adding EDTA solution (250 mmol, pH 8.0, 14 μl/measuring point).
From each reaction batch, 10 μl was applied to P30 filter strips (Wallac Company), and non-incorporated ^33P-ATP was removed by subjecting the filter strips to three washing cycles for 10 minutes each in 0.5% phosphoric acid. After the filter strips were dried for one hour at 70° C., the filter strips were covered with scintillator strips (MeltiLex™ A, Wallac Company) and baked for one hour at 90° C. The amount of incorporated ^33P (substrate phosphorylation) was determined by scintillation measurement in a gamma-radiation measuring device (Wallac).

The target in experiment [4] is T2, VEGF receptor tyrosine kinase-2 (Homo sapiens, UniProt P35968).
T2 construct: GST; made in house; host or cells: baculovirus-infected insect cells (Sf9)
T2 sequence (P35968 20-1356): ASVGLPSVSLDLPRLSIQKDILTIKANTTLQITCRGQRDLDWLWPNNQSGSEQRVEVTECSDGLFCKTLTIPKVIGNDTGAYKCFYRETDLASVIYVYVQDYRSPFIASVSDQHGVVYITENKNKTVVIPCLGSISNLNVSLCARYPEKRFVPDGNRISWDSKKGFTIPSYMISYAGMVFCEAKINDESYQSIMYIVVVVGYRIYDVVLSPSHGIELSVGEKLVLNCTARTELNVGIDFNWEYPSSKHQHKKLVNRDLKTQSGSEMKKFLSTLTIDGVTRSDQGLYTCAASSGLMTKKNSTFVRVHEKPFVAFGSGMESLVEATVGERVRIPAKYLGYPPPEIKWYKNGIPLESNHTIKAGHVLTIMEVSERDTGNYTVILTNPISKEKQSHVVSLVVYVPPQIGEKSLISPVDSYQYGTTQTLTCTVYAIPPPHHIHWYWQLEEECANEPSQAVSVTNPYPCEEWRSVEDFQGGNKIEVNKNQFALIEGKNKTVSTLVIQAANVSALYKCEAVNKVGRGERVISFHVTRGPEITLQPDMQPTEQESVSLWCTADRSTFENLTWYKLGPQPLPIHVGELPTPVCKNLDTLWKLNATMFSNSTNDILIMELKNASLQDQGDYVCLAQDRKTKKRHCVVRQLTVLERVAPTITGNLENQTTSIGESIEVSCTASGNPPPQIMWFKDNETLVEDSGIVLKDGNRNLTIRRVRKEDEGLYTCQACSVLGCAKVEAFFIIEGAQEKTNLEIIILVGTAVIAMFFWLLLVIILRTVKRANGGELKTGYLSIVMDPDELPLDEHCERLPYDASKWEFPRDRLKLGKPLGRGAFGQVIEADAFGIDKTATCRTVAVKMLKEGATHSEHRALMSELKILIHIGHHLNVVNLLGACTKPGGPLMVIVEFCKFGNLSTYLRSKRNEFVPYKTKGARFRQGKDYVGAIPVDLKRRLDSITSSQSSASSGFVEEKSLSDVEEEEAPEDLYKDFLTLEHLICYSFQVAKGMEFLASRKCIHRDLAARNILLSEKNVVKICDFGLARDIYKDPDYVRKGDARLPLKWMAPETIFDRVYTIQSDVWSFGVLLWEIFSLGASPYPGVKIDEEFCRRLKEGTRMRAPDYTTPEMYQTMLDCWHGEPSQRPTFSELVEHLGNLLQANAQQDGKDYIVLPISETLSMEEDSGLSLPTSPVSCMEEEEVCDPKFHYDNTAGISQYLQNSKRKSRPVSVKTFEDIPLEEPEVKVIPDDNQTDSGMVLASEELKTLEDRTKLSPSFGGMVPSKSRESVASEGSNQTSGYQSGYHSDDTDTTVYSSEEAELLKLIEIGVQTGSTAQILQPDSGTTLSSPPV
Description: VEGF Receptor-2 Kinase Assay. In kind it is biochemical. The note with it: poly-(Glu4Tyr) substrate, 33P-ATP, 10 minutes at 22° C.; read-out: VEGF-R2 IC50.

The test system of experiment [5] is MCF7, hormone-independent human breast cancer cells. Description: Proliferation assay, MCF7. In kind it is cell-based. The note with it: MCF7, 96 h, 4 days incubation, crystal violet. The method, boiled down: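 Cells seeded ~5000/well, treated after 24 h with 0.01-30 μM compound (0.5% DMSO) for 4 days. Glutaraldehyde-fixed cells stained with crystal violet, absorbance at 595 nm; growth expressed as percent, normalized to zero-point plate (0%) and untreated cells (100%).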

Experiment [6] concerns NCI-H460, human non-small-cell lung cancer cells. Description: Proliferation assay, H460. In kind it is cell-based. The note with it: NCI-H460, 96 h, 4 days incubation, crystal violet.
Description: as §1

Experiment [7] has as its target T3, CDK1/CycB (Homo sapiens, UniProt P06493).
T3 construct: GST; purchased ProQinase GmbH, Freiburg; host or cells: baculovirus-infected insect cells (Sf9)
In words: CDK1/CycB Kinase Assay. It counts as biochemical. The note with it: histone IIIS substrate, 33P-ATP, 15 minutes at 22° C.

T3 sequence (P06493 whole entry): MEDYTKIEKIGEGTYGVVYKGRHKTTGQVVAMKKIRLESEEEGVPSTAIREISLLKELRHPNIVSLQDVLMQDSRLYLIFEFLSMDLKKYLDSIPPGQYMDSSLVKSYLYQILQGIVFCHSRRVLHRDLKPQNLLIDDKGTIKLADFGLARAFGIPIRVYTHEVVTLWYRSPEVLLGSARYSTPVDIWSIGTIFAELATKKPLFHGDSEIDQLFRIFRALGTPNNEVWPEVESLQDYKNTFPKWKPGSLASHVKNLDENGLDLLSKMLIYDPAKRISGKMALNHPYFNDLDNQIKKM
T3 sequence (P14635 whole entry partner): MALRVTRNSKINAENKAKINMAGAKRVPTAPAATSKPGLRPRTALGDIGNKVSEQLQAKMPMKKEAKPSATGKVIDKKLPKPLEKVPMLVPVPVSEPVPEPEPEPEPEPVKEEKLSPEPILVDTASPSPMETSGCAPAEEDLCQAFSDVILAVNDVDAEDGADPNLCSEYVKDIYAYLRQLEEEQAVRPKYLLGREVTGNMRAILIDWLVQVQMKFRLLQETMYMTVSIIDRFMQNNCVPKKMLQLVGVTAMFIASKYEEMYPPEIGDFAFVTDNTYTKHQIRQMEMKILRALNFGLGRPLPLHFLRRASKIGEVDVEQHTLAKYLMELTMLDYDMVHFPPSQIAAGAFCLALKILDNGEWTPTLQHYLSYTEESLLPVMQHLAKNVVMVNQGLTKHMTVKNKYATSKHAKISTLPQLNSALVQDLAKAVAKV

As to `Cc1cc(Nc2ncc(Br)c(N[C@H](C)[C@@H](C)O)n2)ccc1S(C)(=N)=O` (mixture of isomers) [Example 1.60, (RS)-S-[4-({5-bromo-4-[(1R,2R)-(2-hydroxy-1-methylpropyl)amino]pyrimidin-2-yl}amino)-2-methylphenyl]-S-methyl sulfoximide], the half-inhibitory concentration (IC50) in experiment [1] is 40 nM; in experiment [2] it was 40 nM; in experiment [3], 4 nM; in experiment [4], 39 nM; in experiment [5], 60 nM; in experiment [6], 40 nM. Besides, the IC50 in experiment [7] was 4 nM.
Consider `CCOC(=O)N=S(C)(=O)c1ccc(Nc2ncc(Br)c(N[C@H](C)[C@@H](C)O)n2)cc1` (mixture of isomers) [Example 1.32, (RS)-S-[4-({5-bromo-4-[(1R,2R)-(2-hydroxy-1-methylpropyl)amino]pyrimidin-2-yl}amino)phenyl]-N-(ethoxycarbonyl)-S-methyl sulfoximide], for which the IC50 in experiment [1] turned out to be 300 nM; in experiment [2], 600 nM; in experiment [3] it was 12 nM; in experiment [4], 56 nM; in experiment [5], 190 nM; in experiment [6], 180 nM. This molecule gave an IC50 in experiment [7] of 16 nM.
On to `C[C@@H](O)[C@@H](C)Nc1nc(Nc2ccc(S(=O)(CCO)=NS(=O)(=O)CC[Si](C)(C)C)cc2)ncc1Br` (mixture of isomers) [Example 1.16, (RS)-S-[4-({5-Bromo-4-[(1R,2R)-(2-hydroxy-1-methyl-propyl)amino]pyrimidin-2-yl}amino)phenyl]-S-(2-hydroxyethyl)-N-[2-(trimethylsilyl)ethylsulfonyl]sulfoximide], for which the IC50 in experiment [1] was found to be 190 nM; in experiment [2] it was 4000 nM; in experiment [3] it was 130 nM; in experiment [4] it was 130 nM; in experiment [5], 180 nM; in experiment [6] it was 200 nM. This molecule also had an IC50 in experiment [7] of 170 nM.
Regarding `CCOC(=O)N=S(C)(=O)c1ccc(Nc2ncc(Br)c(N[C@H](C)C(C)(C)O)n2)cc1C` (mixture of isomers) [Example 1.37, (RS)-S-[4-({5-bromo-4-[(R)-(2-hydroxy-1,2-dimethylpropyl)amino]pyrimidin-2-yl}amino)-2-methylphenyl]-N-(ethoxycarbonyl)-S-methyl sulfoximide], the IC50 in experiment [1] is 160 nM; in experiment [2], 300 nM; in experiment [3], 48 nM; in experiment [4], 57 nM; in experiment [5], 170 nM; in experiment [6], under 100 nM. The molecule further yielded an IC50 in experiment [7] of 63 nM.
As for `C[C@@H](Nc1nc(Nc2ccc(S(=N)(=O)CC3CC3)cc2)ncc1Br)C(C)(C)O` (mixture of isomers) [Example 1.9, (RS)-S-[4-({5-bromo-4-[(R)-(2-hydroxy-1,2-dimethylpropyl)amino]pyrimidin-2-yl}amino)phenyl]-S-(cyclopropylmethyl)sulfoximide], the IC50 in experiment [1] was 100 nM; in experiment [2], 100 nM; in experiment [3], 4 nM; in experiment [4], 49 nM; in experiment [5] it was 100 nM; in experiment [6] it was 110 nM. The molecule also had an IC50 in experiment [7] of 5 nM.
Regarding `CCOC(=O)N=S(=O)(CC)c1ccc(Nc2ncc(Br)c(N[C@H](C)[C@@H](C)O)n2)cc1` (mixture of isomers) [Example 1.36, (RS)-S-[4-({5-bromo-4-[(1R,2R)-(2-hydroxy-1-methylpropyl)amino]pyrimidin-2-yl}amino)phenyl]-N-(ethoxycarbonyl)-S-ethyl sulfoximide], the half-maximal inhibitory concentration (IC50) in experiment [1] was 170 nM; in experiment [2] it was 1200 nM; in experiment [3], 11 nM; in experiment [4], 92 nM; in experiment [5] it was 140 nM; in experiment [6], 120 nM. The IC50 in experiment [7] stood at 43 nM.
Consider `CCOC(=O)N=S(=O)(CC)c1ccc(Nc2ncc(Br)c(N[C@H](C)C(C)(C)O)n2)cc1` (mixture of isomers) [Example 1.35, (RS)-S-[4-({5-bromo-4-[(R)-(2-hydroxy-1,2-dimethylpropyl)amino]pyrimidin-2-yl}amino)phenyl]-N-(ethoxycarbonyl)-S-ethyl sulfoximide], for which the IC50 in experiment [1] came out at 120 nM; in experiment [2], 300 nM; in experiment [3] it was 42 nM; in experiment [4] it was 94 nM; in experiment [5], 110 nM; in experiment [6] it was 120 nM. The IC50 in experiment [7] is 96 nM.
For `CCOC(=O)N=S(C)(=O)c1ccc(Nc2ncc(Br)c(N[C@H](C)[C@@H](C)O)n2)cc1C` (mixture of isomers) [Example 1.38, (RS)-S-[4-({5-bromo-4-[(1R,2R)-(2-hydroxy-1-methylpropyl)amino]pyrimidin-2-yl}amino)-2-methylphenyl]-N-(ethoxycarbonyl)-S-methyl sulfoximide], the IC50 in experiment [1] was determined as 130 nM; in experiment [2], 400 nM; in experiment [3] it was 78 nM; in experiment [4], 59 nM; in experiment [5] it was 120 nM; in experiment [6], 60 nM. Moreover, in experiment [7], the midpoint of inhibition, the IC50, lay at 75 nM.
With `CCOC(=O)N=S(C)(=O)c1ccc(Nc2ncc(Br)c(O[C@H](C)[C@@H](C)O)n2)cc1` (mixture of isomers) [Example 1.40, (RS)-S-[4-({5-bromo-4-[(1R,2R)-2-hydroxy-1-methylpropoxy]pyrimidin-2-yl}amino)phenyl]-N-(ethoxycarbonyl)-S-methyl sulfoximide], the IC50 was determined as 180 nM in experiment [1]; 300 nM in experiment [2]; 14 nM in experiment [3]; 110 nM in experiment [4]; 110 nM in experiment [5]; 170 nM in experiment [6]. Also, the IC50 in experiment [7] was found to be 21 nM.
`CC(O)C(C)Sc1nc(Nc2ccc(S(C)(=N)=O)cc2)ncc1Br` (racemic) [Example 3.5, (RS)-S-[4-({5-bromo-4-[(RS,RS)-(2-hydroxy-1-methylpropyl)sulfanyl]pyrimidin-2-yl}amino)phenyl]-S-methyl sulfoximide]: the 50% inhibitory concentration (IC50) in experiment [1] was determined as 60 nM; in experiment [2], 30 nM; in experiment [3], 8 nM; in experiment [4], 150 nM; in experiment [5] it was 120 nM; in experiment [6] it was 50 nM. Also, half-maximal inhibition in experiment [7] (IC50) required 17 nM.
For `C[C@@H](Nc1nc(Nc2ccc(S(=O)(CCO)=NS(=O)(=O)CC[Si](C)(C)C)cc2)ncc1Br)C(C)(C)O` (mixture of isomers) [Example 1.12, (RS)-S-[4-({5-bromo-4-[(R)-(2-hydroxy-1,2-dimethylpropyl)amino]pyrimidin-2-yl}amino)phenyl]-S-(2-hydroxyethyl)-N-[2-(trimethylsilyl)ethylsulfonyl]sulfoximide], the half-inhibitory concentration (IC50) in experiment [1] came out at 300 nM; in experiment [2] it was 2800 nM; in experiment [3], 49 nM; in experiment [4], 160 nM; in experiment [5] it was 200 nM; in experiment [6], 400 nM. This molecule also gave an IC50 in experiment [7] of 160 nM.
